According to patent US20100204097A1, “THERAPEUTIC METHODS USING A THYMUS PEPTIDE” (IMMUNE SYSTEM KEY LTD., priority 2006, published 2010):

Columns and labels:
[1] = tested on: U937 cells; assay: Western blot for phosphorylated JNK, phosphorylated MAPK p38 and IκB in U937 cells; assay type: cell-based, human
Description: The U937 cells were incubated for 30 min. with (+) or without (−) T101;
In order to determine the effect of T101 on various apoptotic signaling pathways, JNK and MAP kinase phosphorylation were measured.
(§1) In FIG. 10, it can be seen that T101 causes an increase in both JNK and MAPK phosphorylation 30 min after T101 application, while no change in the IκB protein level was detected. No change of IκB levels was detected at shorter time points as well. Therefore, it is assumed that the JNK pathway and MAP kinase pathway are activated by T101, while NF-κB remains unactivated. However, not only the caspase 8 pathway is activated upon T1/ST2 activation by T101, but also the caspase 9 dependent cascade is stimulated.

[2] = tested on: human lung carcinoma cells; assay: Induction of apoptosis in human lung carcinoma cells; assay type: cell-based; conditions: not shown
Source text: (§2) It may be seen in FIG. 9 that in untreated cells (time 0), a significant level of FLIP but very little caspase 8 are observed. […] It is seen that the changes in FLIP and caspase 8 are time-sensitive, with the greatest changes seen at the short time points (10′), after which their levels gradually return to baseline. Similar results were obtained with other cell lines as well.

[3] = tested on: U937 cells; assay: Western blot for Bcl-2 and full length caspase 9 in U937 cells; assay type: cell-based, human
Description: as §1

[4] = tested on: U937 cells; assay: Western blot for activated caspase 3 in FCS-activated U937 cells; assay type: cell-based, human; conditions: U937 cells activated with 10% FCS, 18 hr, 10 pg/ml to 100 ng/ml T101
Description: 10^6 U937 cells, a human leukemic monoblast cell line, were incubated for 18 hr at 37° C. in RPMI buffer+10% fetal calf serum (FCS) with different concentrations of T101. The FCS causes activation of the U937 cells. The cells were then lysed in RIPA buffer in the presence of protease inhibitors, and run on SDS-PAGE. A Western blot of the gel was performed with anti-caspase 3 antibody.
The lanes of the gel were loaded with lysed cells which had been incubated with the following concentrations of T101: A,B—0 pg/ml (control); C—10 pg/ml; D—100 pg/ml; E—1 ng/ml; F—10 ng/ml; G—100 ng/ml.
Thus, T101 can be expected to cause apoptosis in activated monocytes, thereby reducing the possibility of development of a disease associated with activated monocytes, such as atherosclerosis.

[5] = tested on: murine spleenocytes; assay: Activated caspase 3 in spleenocytes of mice injected ip with LPS and/or T101; assay type: in vivo; conditions: Balb/c mice
Description: Four groups of 3 mice each (male Balb/c, 6 wks old, approx. 20 gr.) were injected ip with the following: A—saline (control); B—50 μg LPS (induces activation of monocytes); C —50 μg LPS+1 μg T101; D—1 μg T101. After 24 hours the mice were sacrificed and the spleens were removed. The spleens of the mice of each group were combined and lysed in RIPA buffer in the presence of protease inhibitors, and 30×10^6 lysed spleenocytes from each group were run on SDS-PAGE. A Western blot of the gel was performed with antibody against activated caspase 3.

[6] = tested on: T1/ST2 receptor; assay: Streptavidin bead pull-down of FC-T1/ST2 by biotin-labeled T101, Western blot; assay type: binding; conditions: T101-bio pre-incubated with FC-T1/ST2 45 min at 4° C., Streptavidin beads
Description: An antibody to the T1/ST2 receptor (FC-T1/ST2), and T101 labeled with biotin (T101-bio) were prepared. Streptavidin beads were incubated for 1 hr. at 4° C. with each of the following: A —T101-bio alone; B—Fc-T1/ST2 alone; C—FC-T1/ST2 pre-incubated with T101-bio for 45 min. at 4° C. After incubation, the beads were spun down and washed 3 times with PBS+0.1% Tween 20. The beads were then loaded on SDS-PAGE and a Western blot was performed using antibody against T1/ST2.

[7] = tested on: U937 cells; assay: Time course of FLIP and caspase 8 in T1/ST2 immuno-precipitated from U937 cells; assay type: cell-based, human
Description: The samples were obtained from T1/ST2 immuno-precipitated from U937 cells at different time points after incubation with T101. The antibodies used to detect caspase 8 were against the active cleaved species;
In this example, the time course of the effect of T101 on T1/ST2 receptor-related apoptosis was investigated by following the degradation of FLIP and activation of caspase 8. U937 cells were incubated with T101, and at different time points T1/ST2 was immuno-precipitated from the cells and analyzed by Western blot for the presence of caspase 8 and FLIP.

[8] = tested on: U937 cells; assay: Western blot for the 85 kDa cleavage product of PARP in U937 cells; assay type: cell-based, human
Description: U937 cells were treated as in FIG. 1 and loaded on SDS-PAGE, except that the gel was treated with antibody against the 85 kDa cleavage product of PARP, which is produced by the cleavage of PARP by caspase 3, and is active in apoptosis.
The lanes of the gel were loaded with lysed cells which had been incubated with the following concentrations of T101: A —100 ng/ml; B —10 ng/ml; C —1 ng/ml; D —100 pg/ml; E —10 pg/ml; F —0 pg/ml (control). The bands show the location of the 85 kDa cleavage product of PARP.
U937 cells were treated as in FIG. 2 except that some of the cells were not treated with FCS, i.e. not activated. The lysed cells were loaded on SDS-PAGE, which was treated with antibody against the 85 kDa cleavage product of PARP.
The lanes of the gel were loaded with lysed cells, as follows: A—activated cells+0 ng/ml T101 (control) [the result with nonactivated cells was similar]; B—nonactivated cells+100 ng/ml T101; C—activated cells+100 ng/ml T101.

[9] = tested on: human glioblastoma cells; assay: Induction of apoptosis in human glioblastoma cells; assay type: cell-based; conditions: not shown
Source text: as §2

[10] = Blood cholesterol level in mice after 3 weeks of treatment; assay type: in vivo; conditions: female Balb/C mice, 50 μg/Kg twice a day for 3 weeks, pooled blood, versus saline
Description: (§3) Two groups of 7 weeks old female Balb/C mice were injected twice a day for 3 weeks with either T101 (50 μg/Kg) (8 mice), or with saline (control) (7 mice). After 3 weeks, blood was collected from the mice and pooled, and the cholesterol level (mg/DL) was measured.

[11] = tested on: mouse spleenocytes; assay: Expression of VEGFA, VEGFR1 and IL-10 in mouse spleenocytes; assay type: cell-based; conditions: increasing concentrations of T101
Source text: HPRT was included as a negative control.
Mouse spleenocytes were challenged without or with increasing concentrations of T101. VEGFA, VEGFR1 and IL-10 expression were compared. VEGFA is a major proangiogenic cytokine, and VEGFR1 is a receptor for VEGFA. HPRT was included as a negative control.

[12] = tested on: human breast cancer cells; assay: Induction of apoptosis in human breast cancer cells; assay type: cell-based; conditions: not shown
Source text: as §2

[13] = tested on: murine spleenocytes; assay: Activated caspase 6 in spleenocytes of mice injected ip with LPS and/or T101; assay type: in vivo; conditions: Balb/c mice
[14] = tested on: murine mammary gland carcinoma cells; assay: Induction of apoptosis in murine mammary gland carcinoma cells; assay type: cell-based; conditions: not shown
Source text: as §2

[15] = tested on: mouse N2A neublastoma cells; assay: Induction of apoptosis in mouse N2A neublastoma cells; assay type: cell-based; conditions: not shown
Source text: as §2

[16] = Blood liver enzyme levels (AST, ALP, ALT) in mice after 3 weeks of treatment; assay type: in vivo; conditions: female Balb/C mice, 50 μg/Kg twice a day for 3 weeks, versus saline
Description: as §3
Liver enzymes levels (μg/L) were measured in the blood of the mice of Example 7. The enzymes measured were aspartate aminotransferase (AST), alkaline phosphatase (ALP) and alanine aminotransferase (ALT).

[17] = 1 μg T101 without LPS, 24 hours
[18] = T1/ST2 immuno-precipitate from U937 cells, greatest change at 10′

Substance: T101: human thymus peptide, 51 amino acids: LHLWLSGEPVQSSGTKDMRSKSDSKRVSDKQLISKAVWWTFFLPSTLWERK (listed as Homo sapiens)
- JNK phosphorylation ([1]; 30 min after T101 application): increase
- MAPK phosphorylation ([1]; 30 min after T101 application): increase
- IκB protein level ([1]; 30 min and shorter time points): no change
- induction of apoptosis [2]: able to induce apoptosis
- Bcl-2 protein [3]: very pronounced degradation
- full-length caspase 9 protein [3]: cleavage of the full-length caspase 9 protein
- activated caspase 3 (Western blot) [4]: increased activated caspase 3
- activated caspase 3 in spleenocytes [5, 17]: inhibition of activated caspase 3
- activated caspase 3 in spleenocytes ([5]; 50 μg LPS+1 μg T101, 24 hours, versus control): increased amount of activated caspase 3
- binding to the T1/ST2 receptor [6]: binds to the T1/ST2 receptor
- active caspase 8 [7, 18]: concomitant increase of active caspase 8
- level of FLIP [7, 18]: level of FLIP decreases
- inactive caspase 8 ([7]; U937 cells, not shown): decrease of the inactive caspase 8
- cleavage of PARP, activated versus nonactivated monocytes ([8]; U937 cells with or without FCS, 100 ng/ml T101): induced the cleavage of PARP only in the activated monocytes
- amount of the 85 kDa cleavage product of PARP ([8]; activated U937 cells, 10 pg/ml T101): significantly increased
- induction of apoptosis [9]: able to induce apoptosis
- cholesterol level in the blood [10]: significant decrease
- expression of IL-10 [11]: enhanced
- expression of VEGFA [11]: inhibits the expression
- expression of VEGFR1 [11]: inhibits the expression
- induction of apoptosis [12]: able to induce apoptosis
- caspase 6 in nonactivated spleenocytes [13, 17]: inhibiting caspase 6
- caspase 6 in activated spleenocytes ([13]; 50 μg LPS+1 μg T101, 24 hours): induces caspase 6
- induction of apoptosis [14]: able to induce apoptosis
- induction of apoptosis [15]: able to induce apoptosis
- liver enzyme levels in the blood (AST, ALP, ALT) [16]: significant decrease
